Laboratory results published in patent US20050004126A1 (priority 2001, published 2005).
pIC50: −log10 of the molar value. Like-named read-outs stand apart in the source and are kept apart here.

Tests used:
[1] = target: T1, MMP-13CD (catalytic domain of collagenase 3) (Homo sapiens, UniProt P45452); assay: Thiopeptolide hydrolysis assay, MMP-13;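 also: inhibition of enzymatic thiopeptolide substrate cleavage (100 µM) in pH 6.0 MES buffer with CaCl2 and DTNB, comparing hydrolysis with versus without inhibitor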
Protocol: (§1) They measure the amount by which a test compound reduces the hydrolysis of a thiopeptolide substrate caused by a matrix metalloproteinase enzyme.
(§2) Thiopeptolide substrates show virtually no decomposition or hydrolysis in the absence of a matrix metalloproteinase enzyme. A typical thiopeptolide substrate commonly utilized for assays is Ac-Pro-Leu-Gly-thioester-Leu-Leu-Gly-OEt. A 100 μL assay mixture will contain 50 mM of 2-morpholinoethane sulfonic acid monohydrate (MES, pH 6.0) 10 mM CaCl2, 100 μM thiopeptolide substrate, and 1 mM 5,5′-dithio-bis-(2-nitro-benzoic acid) (DTNB). […] Assays are carried out with and without matrix metalloproteinase inhibitor compounds, and the amount of hydrolysis is compared for a determination of inhibitory activity of the test compounds.

[2] = target: T1, MMP-13CD (catalytic domain of collagenase 3); assay: biochemical
Protocol: as §1, §2

[3] = target: MMP-9FL (full length Gelatinase B) (Homo sapiens, UniProt P14780); assay: Thiopeptolide hydrolysis assay, MMP-9; assay type: biochemical
[4] = target: T2, MMP-7FL (full-length matrilysin) (Homo sapiens, UniProt P09237); assay: Thiopeptolide hydrolysis assay, MMP-7; assay type: biochemical
T2 sequence (P09237 95-267): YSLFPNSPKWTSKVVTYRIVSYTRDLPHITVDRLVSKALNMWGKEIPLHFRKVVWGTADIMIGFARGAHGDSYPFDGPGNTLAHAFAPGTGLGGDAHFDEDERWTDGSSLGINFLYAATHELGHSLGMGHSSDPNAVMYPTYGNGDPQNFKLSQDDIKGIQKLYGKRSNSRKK

[5] = target: T3, MMP-2FL (full length Gelatinase A) (Homo sapiens, UniProt P08253); assay: Thiopeptolide hydrolysis assay, MMP-2; assay type: biochemical
T3 sequence (P08253 110-660): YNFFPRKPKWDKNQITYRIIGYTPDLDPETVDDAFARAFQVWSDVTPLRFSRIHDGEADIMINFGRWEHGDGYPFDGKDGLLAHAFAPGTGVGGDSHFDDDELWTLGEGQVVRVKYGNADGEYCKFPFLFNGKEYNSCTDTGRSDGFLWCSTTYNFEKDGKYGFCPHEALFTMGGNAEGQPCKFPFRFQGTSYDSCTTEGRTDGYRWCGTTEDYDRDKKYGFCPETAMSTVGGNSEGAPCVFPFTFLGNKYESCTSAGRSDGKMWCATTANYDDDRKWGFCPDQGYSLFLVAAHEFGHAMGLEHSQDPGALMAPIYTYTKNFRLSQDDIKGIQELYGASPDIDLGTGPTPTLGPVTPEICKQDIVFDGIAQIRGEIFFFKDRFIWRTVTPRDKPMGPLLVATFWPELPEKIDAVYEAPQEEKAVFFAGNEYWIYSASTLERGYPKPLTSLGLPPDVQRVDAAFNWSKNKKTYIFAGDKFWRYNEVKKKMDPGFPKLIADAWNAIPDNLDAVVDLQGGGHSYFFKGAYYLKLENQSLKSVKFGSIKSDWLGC

[6] = target: MMP-14CD (catalytic domain of membrane type 1 MMP) (Homo sapiens, UniProt P50281); assay: Thiopeptolide hydrolysis assay, MMP-14; assay type: biochemical
[7] = target: MMP-3CD (catalytic domain of stromelysin) (Homo sapiens, UniProt P08254); assay: Thiopeptolide hydrolysis assay, MMP-3; assay type: biochemical;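 also: inhibition of thiopeptolide substrate (100 µM) cleavage by the MMP-3 catalytic domain, detected with DTNB at pH 6.0 with CaCl2, hydrolysis compared against runs lacking inhibitor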
Protocol: as §1, §2

[8] = target: T4, MMP-1FL (full-length interstitial collagenase) (Homo sapiens, UniProt P03956); assay: Thiopeptolide hydrolysis assay, MMP-1; assay type: biochemical
T4 sequence (P03956 100-469): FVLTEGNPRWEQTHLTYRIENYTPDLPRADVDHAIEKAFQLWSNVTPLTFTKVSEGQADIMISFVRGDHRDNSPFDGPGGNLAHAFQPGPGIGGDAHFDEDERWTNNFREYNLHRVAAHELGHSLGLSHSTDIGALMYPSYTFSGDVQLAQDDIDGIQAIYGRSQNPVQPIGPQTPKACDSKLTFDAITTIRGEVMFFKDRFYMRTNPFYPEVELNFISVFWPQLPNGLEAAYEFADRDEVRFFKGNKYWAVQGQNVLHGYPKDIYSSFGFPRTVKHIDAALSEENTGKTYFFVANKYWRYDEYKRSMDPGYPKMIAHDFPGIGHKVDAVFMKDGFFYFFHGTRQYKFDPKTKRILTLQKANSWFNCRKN
Protocol: as §1
Thiopeptolide substrates show virtually no decomposition or hydrolysis in the absence of a matrix metalloproteinase enzyme. A typical thiopeptolide substrate commonly utilized for assays is Ac-Pro-Leu-Gly-thioester-Leu-Leu-Gly-OEt. A 100 μL assay mixture will contain 50 mM of 2-morpholinoethane sulfonic acid monohydrate (MES, pH 6.0) 10 mM CaCl2, 100 μM thiopeptolide substrate, and 1 mM 5,5′-dithio-bis-(2-nitro-benzoic acid) (DTNB). […] The change in absorbance at 405 nm is monitored on a Thermo Max microplate reader (moleucular Devices, Menlo Park, Calif.) at room temperature (22° C.). […] Assays are carried out with and without matrix metalloproteinase inhibitor compounds, and the amount of hydrolysis is compared for a determination of inhibitory activity of the test compounds.

MMP-13 = MMP-13 (Homo sapiens, UniProt P45452); details: cited from earlier work
other MMP enzymes = details: Chen et al.; cited from earlier work
[9] = Table 1a, full-length enzyme, read-out: MMP09 (FL) IC50
[10] = Table 1a, full-length enzyme, read-out: MMP07 (FL) IC50
[11] = Table 1a, full-length enzyme, read-out: MMP02 (FL) IC50
[12] = Table 1a, catalytic domain, read-out: MMP14 (CD) IC50
[13] = MMP13 (CD) IC50 μM, Table 1a, catalytic domain
[14] = Table 1a, full-length enzyme, read-out: MMLP01 (FL) IC50
[15] = Table 1a, catalytic domain, read-out: MMP03 (CD) IC50
[16] = Table VI, synthesis examples, read-out: MMP09
[17] = Table VI, synthesis examples, read-out: MMP02
[18] = Table VI, synthesis examples, read-out: MMP01
[19] = Table VI, synthesis examples, read-out: MMP014
[20] = Table VI, synthesis examples, read-out: MMP07

Chain of MMP-3CD (catalytic domain of stromelysin) (P08254 100-272 limits assumed): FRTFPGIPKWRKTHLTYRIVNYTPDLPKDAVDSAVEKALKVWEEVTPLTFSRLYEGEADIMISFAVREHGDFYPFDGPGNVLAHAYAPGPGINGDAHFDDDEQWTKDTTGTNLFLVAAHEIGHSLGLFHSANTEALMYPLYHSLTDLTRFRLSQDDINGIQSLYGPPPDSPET
Chain of MMP-9FL (full length Gelatinase B) (P14780 94-707): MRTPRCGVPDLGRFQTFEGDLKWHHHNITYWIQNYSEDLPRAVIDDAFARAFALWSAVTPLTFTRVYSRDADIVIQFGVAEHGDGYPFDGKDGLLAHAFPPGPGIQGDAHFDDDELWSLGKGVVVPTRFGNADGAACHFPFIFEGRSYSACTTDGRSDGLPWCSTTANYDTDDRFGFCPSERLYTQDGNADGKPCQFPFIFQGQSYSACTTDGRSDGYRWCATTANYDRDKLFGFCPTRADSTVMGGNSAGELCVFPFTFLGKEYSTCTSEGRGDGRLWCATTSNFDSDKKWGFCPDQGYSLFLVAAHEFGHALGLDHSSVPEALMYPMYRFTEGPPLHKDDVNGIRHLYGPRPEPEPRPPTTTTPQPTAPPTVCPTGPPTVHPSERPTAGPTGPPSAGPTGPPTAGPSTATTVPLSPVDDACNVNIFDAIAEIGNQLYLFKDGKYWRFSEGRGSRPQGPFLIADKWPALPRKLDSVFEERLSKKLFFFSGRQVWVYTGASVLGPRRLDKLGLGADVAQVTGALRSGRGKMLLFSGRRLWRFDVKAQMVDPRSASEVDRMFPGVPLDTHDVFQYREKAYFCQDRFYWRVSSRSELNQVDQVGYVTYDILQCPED

Row | pIC50 [5, 11] | pIC50 [6, 12] | Compound | pIC50 [3, 9] | pIC50 [4, 10] | IC50 [1, 13] [µM] | pIC50 [7, 15] | other results
1 | – | – | O=C(NCc1ccc2c(c1)OCO2)c1ccc2[nH]c(=S)n(Cc3ccccc3)c(=O)c2c1 [3-Benzyl-4-oxo-2-thioxo-1,2,3,4-tetrahydroquinazoline-6-carboxylic acid (benzo[1,3]dioxol-5-ylmethyl)amide] | – | – | – | – | IC50 ([1]; MMP13 IC50 μM, Table IVb): 0.014 µM; pIC50 [2]: 7.85
2 | < 4.00 | < 4.00 | O=C(OCc1ccccc1)c1cn2c(=O)n(Cc3ccccc3)c(=O)cc2s1 [Example 1] | < 4.00 | < 4.00 | – | – | pIC50 ([7]; read-out: MMP03 (CD) IC50): < 4.00
3 | 4.09 | < 4.00 | O=C(NCc1ccccc1)c1cn2c(=O)n(Cc3ccccc3)c(=O)cc2s1 [Example 2] | < 4.00 | < 4.00 | 0.51 | < 4.00 | pIC50 [8, 14]: < 4.00
4 | < 4.00 | < 4.00 | COc1ccc(CNC(=O)c2cn3c(=O)n(Cc4ccc(C(=O)O)cc4)c(=O)c(C)c3s2)cc1 [Example 5] | < 4.00 | < 4.00 | 0.0015 | 4.54 | pIC50 [8, 14]: < 4.00
5 | < 4.00 | < 4.00 | COc1ccc(CNC(=O)c2cn3c(=O)n(Cc4ccc(Cl)c(Cl)c4)c(=O)cc3s2)cc1 [Example 8] | < 4.00 | < 4.00 | 0.084 | < 4.00 | pIC50 [8, 14]: < 4.00
6 | – | – | COc1ccc(CNC(=O)c2cn3c(=O)n(Cc4ccc(C(=O)O)cc4)c(=O)c(C)c3s2)cc1 [Synthesis Example 5, 4-[2-(4-Methoxy-benzylcarbamoyl)-8-methyl-5,7-dioxo-7H-thiazolo[3,2-c]pyrimidin-6-ylmethyl]-benzoic acid] | – | – | – | – | melting point: > 210 °C
7 | – | – | O=C(OCc1ccncc1)c1cc2c(=O)n(Cc3ccccc3)c(=O)[nH]c2s1 [Synthesis Example 18, 3-Benzyl-2,4-dioxo-1,2,3,4-tetrahydro-thieno[2,3-d]pyrimidine-6-carboxylic acid pyridin-4-ylmethyl ester] | – | – | – | – | melting point: 248 to 250 °C
8 | – | – | COC(=O)c1ccc(Cn2c(=O)c3cc(C(=O)NCc4ccc(OC)cc4)ncc3n(C)c2=O)cc1 [Synthesis Example 54, Methyl 4-[6-(4-Methoxy-benzylcarbamoyl)-1-methyl-2,4-dioxo-1,4-dihydro-2H-pyrido[3,4-d]pyrimidin-3-ylmethyl]-benzoate] | – | – | – | – | pIC50 [2]: 8.77
9 | – | – | COC(=O)c1ccc(Cn2c(=O)c3cc(C(=O)NCc4ccc(OC)cc4)ccc3n3cnnc23)cc1 [Synthesis Example 59, Methyl 4-{7-[(4-methoxybenzyl)-carbamoyl]-5-oxo-5H-[1,2,4]triazolo[4,3-a]quinazol-4-ylmethyl}benzoate] | – | – | – | – | IC50 ([1]; IC50 μM, Table V, MMP-13): 0.0026 µM; melting point: 210 °C
10 | – | – | O=C(O)c1ccc(Cn2c(=O)c3cc(C(=O)NCc4ccc5c(c4)OCO5)ccc3n3cnnc23)cc1 [Synthesis Example 61, 4-{7-[(1,3-Benzodioxol-5-ylmethyl)-carbamoyl]-5-oxo-5H-[1,2,4]triazolo[4,3-a]quinazol-4-ylmethyl}benzoic acid] | – | – | – | – | IC50 ([1]; IC50 μM, Table V, MMP-13): 0.0009 µM; melting point: 235 °C
11 | – | – | Cc1cc(C)c(N(Cc2ccccc2)S(=O)(=O)c2ccc(OCCNC(=O)c3cc4ccccc4o3)cc2)c(C(=O)NO)c1 [WAY-170523] | – | – | – | – | selectivity for MMP-13 (MMP-13; as reported by Chen et al.): selective inhibitor of MMP-13
12 | – | – | CN1C(=O)N(Cc2ccccc2)S(=O)(=O)c2cc(C(=O)OCc3ccccc3)ccc21 [compound 62] | – | – | – | – | pIC50 [3, 16]: < 4.00; pIC50 [5, 17]: < 4.00; pIC50 [8, 18]: < 4.00; pIC50 [6, 19]: < 4.00
13 | – | – | CN1C(=O)N(Cc2ccccc2)S(=O)(=O)c2cc(C(=O)NCc3ccccc3)ccc21 [compound 63] | – | – | – | – | pIC50 [3, 16]: < 4.52; pIC50 [4, 20]: < 4.52; pIC50 [5, 17]: < 4.52; pIC50 [8, 18]: < 4.00; pIC50 [6, 19]: < 4.52; pIC50 ([7]; Table VI, synthesis examples, read-out: MMP03): < 4.52
14 | – | – | COc1ccc(CNC(=O)c2ccc3c(c2)S(=O)(=O)N(Cc2ccc([N+](=O)[O-])cc2)C(=O)N3C)cc1 [compound 65] | – | – | – | – | pIC50 [3, 16]: < 4.52; pIC50 [4, 20]: < 4.52; pIC50 [8, 18]: < 4.52; pIC50 [6, 19]: < 4.52
15 | – | – | O=C(NCCCCN1CCOCC1)c1cc2ccccc2o1 [compound of the formula I] | – | – | – | – | inhibition against MMP-13 (MMP-13; high throughput screening hit, Chen et al.): weak inhibition; activity against other MMP enzymes (other MMP enzymes): inactive

Row | Compound | pIC50 [5, 11] | pIC50 [6, 12] | pIC50 [3, 9] | pIC50 [4, 10] | IC50 [1, 13] [µM] | pIC50 [7, 15] | other results
16 | Cc1c(=O)n(Cc2ccccc2)c(=O)n2cc(C(=O)OCc3ccccc3)sc12 [Example 3] | < 4.00 | – | < 4.00 | < 4.00 | 0.0056 | < 4.52 | pIC50 [6]: < 4.00
17 | O=C(OCc1ccncc1)c1cn2c(=O)n(Cc3ccccc3)c(=O)cc2s1 [Example 4] | – | ≤ 4.00 | ≤ 4.00 | ≤ 4.00 | 0.0054 | ≤ 4.52 | –
18 | Cc1c(=O)n(Cc2ccc(C(=O)O)cc2)c(=O)n2cc(C(=O)NCc3ccncc3)sc12 [Example 6] | < 4.00 | < 4.00 | < 4.00 | < 4.00 | 0.0057 | < 4.00 | –
19 | Cc1c(=O)n(Cc2ccc(S(C)(=O)=O)cc2)c(=O)n2cc(C(=O)NCc3ccncc3)sc12 [Example 7] | < 4.00 | < 4.00 | < 4.00 | < 4.00 | 0.0235 | < 4.00 | –
